Results reported in patent US11040009B2, “Expansile crosslinked polymersome for ph-sensitive delivery of anticancer drugs” (Mayo Foundation for Medical Education and Research, priority 2016, dated 2021).

What was measured:
HeLa cells [1] = experiment: Cell viability by MTS assay; format: cell-based; conditions: 10 μg/mL, FIG. 10
Protocol: HeLa cells were used as a model cancer cell for cytotoxicity evaluation. Trypsinized HeLa cells were seeded onto 48-well tissue culture polystyrene (TCPS) plates at 10,000 cells cm^−2. Cells were then cultured in Dulbecco's Modified Eagle's Medium (DMEM) supplemented with FBS, 100 U/mL penicillin, 2 mM L-glutamine, and 0.1 mg/mL streptomycin for 24 h to allow adhesion. To evaluate the cytotoxicity of PEG-Fu-DiTT polymersomes, empty samples without loaded drugs were prepared, dialyzed against phosphate-buffered saline (PBS) for 2 days, and lyophilized for 3 days. The dried polymersomes were then incubated with HeLa cells at concentrations of 0.1, 0.5, 1.0 and 2.0 mg/mL for 3 days. Wells seeded with the same HeLa cell density but without added polymersomes were used as positive controls. The relative cell densities in each group were determined by MTS assay (CellTiter 96 Aqueous One Solution, Promega, Madison, Wis.) by comparing the optical density (OD) value to that of positive controls (which were set at 100% cell density). To evaluate the cancer killing effect, similar cell culture procedures were used by adding DOX-loaded polymersomes or free drugs at concentrations of 0.01, 0.1, 0.5, 1, 5, 10 and 50 μg/mL.

HeLa cells [2] = experiment: Cellular uptake by DOX fluorescence imaging; format: cell-based; conditions: 10 μg/mL
Protocol: HeLa cells were co-cultured with DOX-loaded polymersomes in DMEM at a drug concentration of 10 μg/mL, as described in Example 6. At time points of 1, 2, 4 hours, the culture medium was removed and cells were washed with PBS three times and then fixed in 4% paraformaldehyde. After 10 min, paraformaldehyde was removed and cells were washed three times with PBS then stained with DAPI (4′,6-diamidino-2-phenylindole) for 2 min. DOX fluorescence from polymersomes and DAPI fluorescence from cellular nuclei were visualized and photographed by Axiovert 25 Zeiss light microscope. DOX fluorescence from polymersomes appeared red, and DAPI fluorescence from cellular nuclei appeared blue.
Cellular uptake of DOX-PS particles were investigated through imaging of DOX fluorescence after 1, 3 and 5 hours of co-culture with HeLa cells. […] The first, second, and third rows correspond to incubation times of 1, 3, and 5 hours respectively.

Compound: COc1cccc2c1C(=O)c1c(O)c3c(c(O)c1C2=O)C[C@@](O)(C(=O)CO)C[C@@H]3O[C@H]1C[C@H](N)[C@H](O)[C@H](C)O1 [unencapsulated DOX, doxorubicin]
- effect on cancer cell viability (HeLa cells [1]): inhibition effect
- DOX fluorescence in cells (HeLa cells [2]; 1 hour): red fluorescence
- DOX fluorescence in cells (HeLa cells [2]; 3 hour): slight increase in intensity
- DOX fluorescence in cells (HeLa cells [2]; 5 hour): slight increase in intensity
